Reference: PubChem BioAssay AID248 (DTP/NCI, 2004)
Where “and” joins values, the source holds several entries; their conditions need not be identical. Identical values can stand only once. Toxic doses and inconclusive results are not listed. No stated cut-off is given here; in the data, active means T/C of 150% or more; inactive means T/C below 125%.

Test system: L1210 leukemia ip in BDF1 mice, survival T/C
Experiment: NCI In Vivo Anticancer Drug Screen. Data for tumor model L1210 Leukemia (intraperitoneal) in B6D2F1 (BDF1) mice
Details: endpoint: mean survival time, higher = longer survival
Outline: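 Antitumor effect is assessed in tumor-bearing animals. Survival in the compound arm is compared with a vehicle-dosed control arm and expressed as their quotient.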

[1] = dose: 100.0 mg/kg/injection, schedule: Q01DX001 (ip), vehicle: saline
[2] = dose: 100.0 mg/kg/injection, schedule: Q01DX009 (ip), vehicle: Klucel (hydroxypropylcellulose) (HPC)
[3] = dose: 200.0 mg/kg/injection, schedule: Q01DX009 (ip), vehicle: Klucel (hydroxypropylcellulose) (HPC)
[4] = dose: 400.0 mg/kg/injection, schedule: Q01DX009 (ip), vehicle: Klucel (hydroxypropylcellulose) (HPC)
[5] = dose: 100.0 mg/kg/injection, schedule: Q04DX002 (ip), vehicle: Klucel (hydroxypropylcellulose) (HPC)
[6] = dose: 200.0 mg/kg/injection, schedule: Q04DX002 (ip), vehicle: Klucel (hydroxypropylcellulose) (HPC)
[7] = dose: 400.0 mg/kg/injection, schedule: Q04DX002 (ip), vehicle: Klucel (hydroxypropylcellulose) (HPC)
[8] = dose: 100.0 mg/kg/injection, schedule: Q04DX003 (ip), vehicle: saline with Tween-80
[9] = dose: 200.0 mg/kg/injection, schedule: Q04DX003 (ip), vehicle: saline with Tween-80
[10] = dose: 400.0 mg/kg/injection, schedule: Q04DX003 (ip), vehicle: saline with Tween-80
[11] = dose: 100.0 mg/kg/injection, schedule: Q04DX003 (ip), vehicle: Klucel (hydroxypropylcellulose) (HPC)
[12] = dose: 200.0 mg/kg/injection, schedule: Q04DX003 (ip), vehicle: Klucel (hydroxypropylcellulose) (HPC)
[13] = dose: 400.0 mg/kg/injection, schedule: Q04DX003 (ip), vehicle: Klucel (hydroxypropylcellulose) (HPC)
[14] = dose: 100.0 mg/kg/injection, schedule: Q04DX003 (ip), vehicle: saline
[15] = dose: 200.0 mg/kg/injection, schedule: Q04DX003 (ip), vehicle: saline

Measured: T/C

CN(CC1CCCO1)C(=O)Nc1ccc(Cl)cc1 (centres undefined)
inactive: dose: 100.0 mg/kg/injection, schedule: Q01DX009 (ip), vehicle: carboxymethylcellulose (CMC) 107 % of control | dose: 200.0 mg/kg/injection, schedule: Q01DX009 (ip), vehicle: carboxymethylcellulose (CMC) 96 % of control | dose: 400.0 mg/kg/injection, schedule: Q01DX009 (ip), vehicle: carboxymethylcellulose (CMC) 104 % of control

NC1=NC(c2ccccc2)N(c2ccccc2)C(N)=N1 (centres undefined)
inactive: dose: 50.0 mg/kg/injection, schedule: Q01DX001 (ip), vehicle: saline 99 % of control | [1] 104 % of control

COc1cc(C(=O)Nc2cc(C(F)(F)F)ccc2Cl)cc(OC)c1OC
inactive: [2] 106 % of control | [3] 100 % of control | [4] 97 % of control

CC(C)CC(CC(C)C)=NO
inactive: dose: 100.0 mg/kg/injection, schedule: Q01DX001 (ip), vehicle: carboxymethylcellulose (CMC) 104 % of control | dose: 200.0 mg/kg/injection, schedule: Q01DX001 (ip), vehicle: carboxymethylcellulose (CMC) 101 % of control | dose: 400.0 mg/kg/injection, schedule: Q01DX001 (ip), vehicle: carboxymethylcellulose (CMC) 103 % of control

O=C(CCN1CCCCC1)C(O)(c1ccccc1)c1ccccc1
inactive: dose: 75.0 mg/kg/injection, schedule: Q01DX001 (ip), vehicle: other 103 % of control | dose: 150.0 mg/kg/injection, schedule: Q01DX001 (ip), vehicle: other 97 % of control | dose: 300.0 mg/kg/injection, schedule: Q01DX001 (ip), vehicle: other 104 % of control

O=C(c1ccccc1)c1nc2ccccc2[nH]1
inactive: [5] 108 % of control | [6] 101 % of control | [7] 104 % of control

Oc1ccc2ccccc2c1C(c1ccccc1)c1c(O)ccc2ccccc12
inactive: dose: 87.5 mg/kg/injection, schedule: Q04DX003 (ip), vehicle: carboxymethylcellulose (CMC) 106 % of control | dose: 175.0 mg/kg/injection, schedule: Q04DX003 (ip), vehicle: carboxymethylcellulose (CMC) 95 % of control | dose: 350.0 mg/kg/injection, schedule: Q04DX003 (ip), vehicle: carboxymethylcellulose (CMC) 111 % of control

CNC(=O)Oc1cccc(NC(=O)N(C(C)C)C(C)C)c1
inactive: [8] 91 % of control | [9] 89 % of control | [10] 88 % of control

CCOC(=O)Nc1ccc(OC)cc1
inactive: [2] 96 % of control | [11] 103 % of control | [3] 98 % of control | [12] 97 % of control | [4] 93 % of control | [13] 98 % of control

CCCCCCCC(N)=O
inactive: dose: 50.0 mg/kg/injection, schedule: Q01DX009 (ip), vehicle: saline with Tween-80 97 % of control | dose: 100.0 mg/kg/injection, schedule: Q01DX009 (ip), vehicle: saline with Tween-80 107 % of control and 90 % of control | [8] 100 % of control | dose: 200.0 mg/kg/injection, schedule: Q01DX009 (ip), vehicle: saline with Tween-80 97 % of control and 106 % of control | [9] 93 % of control | dose: 400.0 mg/kg/injection, schedule: Q01DX009 (ip), vehicle: saline with Tween-80 114 % of control | [10] 91 % of control

CCN=C(c1ccc(NC(=O)c2ccc(C(=O)Nc3ccc(C(=NCC)N(CC)C(=O)NC(C)C)cc3)cc2)cc1)N(CC)C(=O)NC(C)C
inactive: dose: 6.0 mg/kg/injection, schedule: Q01DX015 (ip), vehicle: methylcellulose (MC) 89 % of control | dose: 25.0 mg/kg/injection, schedule: Q01DX015 (ip), vehicle: methylcellulose (MC) 102 % of control | dose: 37.0 mg/kg/injection, schedule: Q01DX015 (ip), vehicle: methylcellulose (MC) 96 % of control

Cc1cc(Cl)ccc1OCC(=O)NCC(C)O (centres undefined)
inactive: [5] 100 % of control | [6] 98 % of control | [7] 98 % of control

Cc1ccc(CNc2ccccc2)cc1
inactive: dose: 12.5 mg/kg/injection, schedule: Q04DX003 (ip), vehicle: saline with Tween-80 95 % of control | dose: 25.0 mg/kg/injection, schedule: Q04DX003 (ip), vehicle: saline with Tween-80 95 % of control | dose: 50.0 mg/kg/injection, schedule: Q04DX003 (ip), vehicle: saline with Tween-80 97 % of control | dose: 100.0 mg/kg/injection, schedule: Q01DX009 (ip), vehicle: other 112 % of control | dose: 200.0 mg/kg/injection, schedule: Q01DX009 (ip), vehicle: other 93 % of control | dose: 400.0 mg/kg/injection, schedule: Q01DX009 (ip), vehicle: other 93 % of control

CCOC(=O)Cc1c(C)c2cc(C(=O)c3ccccc3)c(O)cc2oc1=O
inactive: [1] 98 % of control | dose: 200.0 mg/kg/injection, schedule: Q01DX001 (ip), vehicle: saline 96 % of control | dose: 400.0 mg/kg/injection, schedule: Q01DX001 (ip), vehicle: saline 93 % of control

CC1CC(C(=O)O)C(Cc2ccc([N+](=O)[O-])cc2)C1=O (centres undefined)
inactive: [5] 93 % of control | [6] 93 % of control | [7] 89 % of control

CC/C(C)=C(/C(=O)O)c1ccccc1
inactive: [8] 91 % of control | [9] 94 % of control | [10] 94 % of control

N#[N+]c1c(O)cc(S(=O)(=O)O)c2ccccc12
inactive: dose: 100.0 mg/kg/injection, schedule: Q01DX009 (ip), vehicle: saline 92 % of control | [14] 94 % of control | [15] 101 % of control

CC12CCC(C)(O)C(CC3=C1CCc1ccccc13)C2=O (centres undefined)
inactive: [14] 107 % of control | [15] 104 % of control | dose: 400.0 mg/kg/injection, schedule: Q04DX003 (ip), vehicle: saline 106 % of control

Cc1cccc(N2CCNCC2)c1
inactive: dose: 6.25 mg/kg/injection, schedule: Q04DX003 (ip), vehicle: saline 93 % of control | dose: 12.5 mg/kg/injection, schedule: Q04DX003 (ip), vehicle: saline 96 % of control | dose: 25.0 mg/kg/injection, schedule: Q04DX002 (ip), vehicle: saline with Tween-80 101 % of control | dose: 25.0 mg/kg/injection, schedule: Q04DX003 (ip), vehicle: saline 102 % of control | dose: 50.0 mg/kg/injection, schedule: Q04DX002 (ip), vehicle: saline with Tween-80 92 % of control

COC1OC2COC(c3ccccc3)OC2C(O)C1OC (centres undefined)
inactive: dose: 12.5 mg/kg/injection, schedule: Q04DX002 (ip), vehicle: saline 100 % of control | dose: 25.0 mg/kg/injection, schedule: Q04DX002 (ip), vehicle: saline 100 % of control | dose: 50.0 mg/kg/injection, schedule: Q04DX002 (ip), vehicle: saline 116 % of control

O=[N+]([O-])c1ccc(C=Nc2ccccc2S)s1
inactive: [11] 100 % of control | [12] 96 % of control | [13] 94 % of control
